{"source": "patent US7575889B2", "about": "“Compound combinations for inhibiting cell division and methods for their identification and use” (President and Fellows of Harvard College, priority 2001, dated 2009)", "key": {"[1]": {"system": "E. coli strain DRC39", "assay": "Combination anti-bacterial treatment at sub-MIC concentrations, growth of DRC39", "format": "cell-based", "conditions": "for reduction of the MIC when combined with sub-MIC 26E-10: DRC39", "description": "Cell growth was assessed by visual inspection of cells incubated in culture tubes in this experiment and in the second, third, and fourth experiments described in this Example. In the fifth experiment growth was measured by reading optical density (OD600) using a multiwell plate reader. Cells were inoculated at a low concentration (1-2×10^5 cells/ml), such that the medium appeared clear."}, "[2]": {"target": "FtsZ GTPase activity (Escherichia coli, UniProt P0A9A6)", "sequence (P0A9A6 whole entry)": "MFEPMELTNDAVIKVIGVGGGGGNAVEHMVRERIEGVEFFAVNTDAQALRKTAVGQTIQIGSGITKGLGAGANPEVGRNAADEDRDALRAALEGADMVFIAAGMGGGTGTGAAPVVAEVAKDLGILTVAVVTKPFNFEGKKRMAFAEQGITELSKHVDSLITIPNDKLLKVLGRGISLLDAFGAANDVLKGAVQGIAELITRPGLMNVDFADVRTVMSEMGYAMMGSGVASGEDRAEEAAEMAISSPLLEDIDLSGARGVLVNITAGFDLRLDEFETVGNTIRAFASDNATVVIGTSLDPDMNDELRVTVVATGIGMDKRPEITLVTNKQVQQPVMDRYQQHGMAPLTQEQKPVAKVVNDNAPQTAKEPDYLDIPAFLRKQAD", "conditions": "at the concentrations tested"}, "[3]": {"system": "E. coli DRC39 (ΔacrAB::kan)", "conditions": "for MIC: E. coli DRC39 (ΔacrAB::kan), MIC99, broth dilution"}, "[4]": {"target": "FtsZ protofilaments (Escherichia coli, UniProt P0A9A6)", "sequence (P0A9A6 whole entry)": "as above", "conditions": "for effect on FtsZ polymers (class of inhibitor): electron micrographs, FIGS. 13-15"}, "[5]": {"target": "M. tuberculosis FtzZ (FtsZMt) GTPase (Mycobacterium tuberculosis, UniProt P9WN95)", "sequence (P9WN95 whole entry)": "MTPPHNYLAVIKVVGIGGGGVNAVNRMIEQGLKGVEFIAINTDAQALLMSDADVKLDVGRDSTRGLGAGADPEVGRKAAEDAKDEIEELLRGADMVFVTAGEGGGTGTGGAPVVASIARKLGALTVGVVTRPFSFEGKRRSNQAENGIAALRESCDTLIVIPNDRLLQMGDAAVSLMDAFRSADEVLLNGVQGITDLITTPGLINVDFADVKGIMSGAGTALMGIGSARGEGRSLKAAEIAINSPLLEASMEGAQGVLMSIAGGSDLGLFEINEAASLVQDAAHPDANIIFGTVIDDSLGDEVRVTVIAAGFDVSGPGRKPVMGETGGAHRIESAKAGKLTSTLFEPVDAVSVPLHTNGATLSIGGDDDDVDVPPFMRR", "assay": "Malachite green-phosphomolybdate assay of FtsZ GTPase activity (M. tuberculosis FtsZ)", "format": "biochemical", "conditions": "5 min preincubation at 30° C., 1 mM GTP, averages from three determinations"}, "[6]": {"system": "gram-negative and gram-positive bacteria", "assay": "Antibacterial activity against gram-negative and gram-positive bacteria", "format": "cell-based", "description": "FIG. 19 is a table illustrating the minimum inhibitory concentrations of FtsZ GTPase inhibitory compounds identified in vitro. The compounds were tested against a variety of gram-negative and gram-positive bacteria."}, "[7]": {"system": "Clostridium perfringens", "format": "cell-based"}, "[8]": {"system": "DRC40/pBR-ftsZ+ cells", "assay": "MIC and growth/phenotype, DRC40 with wild-type ftsZ in trans", "format": "cell-based, E. coli"}, "[9]": {"system": "FtsZ ring assembly in E. coli DRC39 cells", "assay": "FtsZ ring assembly in vivo (FtsZ-GFP fluorescence microscopy) in DRC39 cells", "format": "cell-based"}, "[10]": {"system": "B. cereus", "assay": "Killing of B. cereus", "format": "cell-based"}, "[11]": {"system": "E. coli DRC42 (DRC39 recA::cat)", "assay": "MIC, E. coli DRC42"}, "[12]": {"system": "E. coli MC1000 (wild-type)", "assay": "MIC, broth dilution, E. coli MC1000", "conditions": "MIC99, broth dilution"}, "[13]": {"system": "E. coli DRC40 (DRC39 ftsZ84)", "assay": "MIC and growth/phenotype, E. coli DRC40"}}, "note": "Where two headings read alike, the source gives them in different places.", "data": [{"compound": "CCN1C(=Cc2ccc3ccccc3[n+]2CC)C=Cc2ccccc21.[Cl-]", "note": "[3G-09]", "values": [{"measurement": "amount of growth relative to the absence of compound", "setting": "[1]; alone, 0.375 μM, OD600", "value": 92, "unit": "%"}, {"measurement": "growth inhibition", "setting": "[1]; alone, 0.375 μM, OD600", "value": 8, "unit": "%"}, {"measurement": "effect on FtsZ GTPase activity in vitro", "setting": "[2]", "value": "apparently do not affect FtsZ GTPase activity"}, {"measurement": "MIC", "setting": "[3]", "value": 6, "unit": "µM"}]}, {"compound": "CCN1C(=Cc2ccc3c4ccccc4ccc3[n+]2CC)C=Cc2ccccc21.Cc1ccc(S(=O)(=O)[O-])cc1", "note": "[7N-12]", "values": [{"measurement": "amount of growth relative to the absence of compound", "setting": "[1]; individually, 0.3 μM", "value": 98, "unit": "%"}, {"measurement": "growth inhibition", "setting": "[1]; individually, 0.3 μM", "value": 2, "unit": "%"}, {"measurement": "effect on FtsZ GTPase activity in vitro", "setting": "[2]", "value": "inhibit FtsZ GTPase activity"}]}, {"compound": "CCN(CC)CCNc1nc(C=Cc2ccc(Cl)cc2)nc2cc3ccccc3cc12", "note": "[16L-09]", "values": [{"measurement": "reduction of the MIC when combined with sub-MIC 26E-10", "setting": "[1]", "value": 4, "unit": "fold"}, {"measurement": "effect on FtsZ GTPase activity in vitro", "setting": "[2]", "value": "inhibit FtsZ GTPase activity"}, {"measurement": "effect on FtsZ GTPase activity in vitro", "setting": "[2]; listed as 16-L09", "value": "reproducibly and robustly inhibited FtsZ GTPase activity"}, {"measurement": "effect on FtsZ polymers (class of inhibitor)", "setting": "[4]", "value": "cause bundling of FtsZ protofilaments"}, {"measurement": "MIC", "setting": "[3]", "value": 10, "unit": "µM"}]}, {"compound": "C=CCOc1c(Br)cc(S(=O)(=O)c2cc(Br)c(O)c(Br)c2)cc1Br", "note": "[18M-04]", "values": [{"measurement": "IC50", "setting": "[5]", "value": "> 100", "unit": "µM"}, {"measurement": "activity against gram positive and gram negative bacteria", "setting": "[6]", "value": "kills gram positives"}, {"measurement": "effect on FtsZ GTPase activity in vitro", "setting": "[2]", "value": "reproducibly and robustly inhibited FtsZ GTPase activity"}, {"measurement": "effect on FtsZ protofilament assembly in vitro", "setting": "[4]", "value": "destabilizers of FtsZ protofilament assembly"}, {"measurement": "effect on FtsZ polymers (class of inhibitor)", "setting": "[4]", "value": "dose dependent destabilizing effect on the polymers"}]}, {"compound": "CC[n+]1ccc(/C=C/N(C)c2ccccc2)c2ccccc21.[I-]", "note": "[26E-10]", "values": [{"measurement": "phenotype and growth", "setting": "[7]; 80 μM, anaerobic conditions", "value": "filamentation phenotype in the presence of 80 μM 26E-10 without any overt effect on cell growth"}, {"measurement": "phenotype", "setting": "[7]; Clostridium perfringens", "value": "filaments"}, {"measurement": "cell density and filamentation versus DRC40/pBR322", "setting": "[8]; DRC40/pBR-ftsZ+, 5 μM", "value": "higher cell density and less pronounced filamentation"}, {"measurement": "MIC", "setting": "[8]; DRC40 with wild-type ftsZ provided in trans (pBR-ftsZ+)", "value": 10, "unit": "µM"}, {"measurement": "cell length (filamentation)", "setting": "[9]; 10 μM (MIC), DRC39, within 60 min of treatment", "value": "~4", "unit": "×"}, {"measurement": "Z-rings in elongated cells", "setting": "[9]; 10 μM, DRC39, 60 min", "value": "markedly reduced in number and diminished in intensity"}, {"measurement": "Z-rings after 90 min treatment", "setting": "[9]; DRC39, 90 min", "value": "most of the cells were devoid of distinct Z-rings"}, {"measurement": "amount of growth relative to the absence of compound", "setting": "[1]; singly, 5 μM, OD600", "value": 41, "unit": "%"}, {"measurement": "growth inhibition", "setting": "[1]; singly, 5 μM, OD600", "value": 59, "unit": "%"}, {"measurement": "killing of B. cereus", "setting": "[10]", "value": "efficiently killed"}, {"measurement": "growth and morphology", "setting": "[3]; DRC39, 5 μM, 30° C.", "value": "mixture of filaments of varying lengths and short cells present at a low density"}, {"measurement": "MIC", "setting": "[3]", "value": 10, "unit": "µM"}, {"measurement": "MIC", "setting": "[11]", "value": 10, "unit": "µM"}, {"measurement": "MIC", "setting": "[12]", "value": ">40", "unit": "µM"}, {"measurement": "growth", "setting": "[13]; DRC40/pBR322, 5 μM, 30° C.", "value": "absolutely no growth"}, {"measurement": "MIC", "setting": "[13]; E. coli DRC40 (DRC39 ftsZ84), slight turbidity believed to be unlysed filaments", "value": 2.5, "unit": "µM"}]}, {"compound": "Oc1ccc(Cl)cc1Cc1cc(Cl)cc(Cc2cc(Cl)ccc2O)c1O", "note": "[27D-12]", "values": [{"measurement": "activity against gram positive and gram negative bacteria", "setting": "[6]", "value": "effective against gram positive bacteria at very low concentrations and also kills gram negative species"}, {"measurement": "effect on FtsZ GTPase activity in vitro", "setting": "[2]", "value": "inhibit FtsZ GTPase activity"}, {"measurement": "effect on FtsZ GTPase activity in vitro", "setting": "[2]; listed as 27-D12", "value": "reproducibly and robustly inhibited FtsZ GTPase activity"}, {"measurement": "effect on FtsZ polymers (class of inhibitor)", "setting": "[4]", "value": "dose dependent destabilizing effect on the polymers"}, {"measurement": "MIC", "setting": "[3]", "value": 20, "unit": "µM"}]}, {"compound": "CC[n+]1c(/C=C/N(C)c2ccccc2)n(-c2ccccc2)c2ccc(-c3nc4ccccc4s3)cc21", "note": "[27F-02]", "values": [{"measurement": "IC50", "setting": "[5]", "value": 70, "unit": "µM"}, {"measurement": "reduction of the MIC when combined with sub-MIC 26E-10", "setting": "[1]", "value": 5, "unit": "fold"}, {"measurement": "effect on FtsZ GTPase activity in vitro", "setting": "[2]", "value": "inhibit FtsZ GTPase activity"}, {"measurement": "effect on FtsZ GTPase activity in vitro", "setting": "[2]; listed as 27-F02", "value": "reproducibly and robustly inhibited FtsZ GTPase activity"}, {"measurement": "effect on FtsZ protofilament assembly in vitro", "setting": "[4]", "value": "destabilizers of FtsZ protofilament assembly"}, {"measurement": "effect on FtsZ polymers (class of inhibitor)", "setting": "[4]", "value": "cause bundling of FtsZ protofilaments"}, {"measurement": "MIC", "setting": "[3]", "value": 5, "unit": "µM"}]}, {"compound": "Nc1c(C=Cc2cc3cc(C4=NCCN4)ccc3o2)[nH]c2cc(C3=NCCN3)ccc12", "note": "[58P-18]", "values": [{"measurement": "FtsZ ring in treated cells", "setting": "[9]; 40 μM, DRC39 cells", "value": "none of the treated cells appear to contain a medial FtsZ ring"}, {"measurement": "time to start of cell elongation", "setting": "[9]; 40 μM, DRC39 cells", "value": "≤ 60", "unit": "min"}, {"measurement": "reduction of the MIC when combined with sub-MIC 26E-10", "setting": "[1]", "value": "≥ 2", "unit": "fold"}, {"measurement": "effect on FtsZ GTPase activity in vitro", "setting": "[2]", "value": "inhibit FtsZ GTPase activity"}, {"measurement": "effect on FtsZ GTPase activity in vitro", "setting": "[2]; listed as 58-P18", "value": "reproducibly and robustly inhibited FtsZ GTPase activity"}, {"measurement": "effect on FtsZ polymers (class of inhibitor)", "setting": "[4]", "value": "cause bundling of FtsZ protofilaments"}, {"measurement": "MIC", "setting": "[3]", "value": 80, "unit": "µM"}]}]}
